Reference: patent US10736873B2, “Medical uses of N-(2-aminoethyl)-N-(4-benzyloxy)-3-methoxybenzyl)thiophene-2-formamide hydrochloride” (The Second Xiangya Hospital, Central South University, priority 2017, dated 2020)

Columns and labels:
[1] = tested on: Scid-HepG2-subcutaneous tumor; experiment: Scid-HepG2 subcutaneous tumor model in NOD/SCID nude mice; format: in vivo; details: for Relative volume of Scid-HepG2-subcutaneous tumor: 2 mg/kg i.p. 1 time/day
Description: (§1) Using the hepatoma cell line HepG2, 5×10^6 cells were injected into the right flank of each NOD/SCID nude mouse (10 in total) respectively. When the tumor grows to a volume of about 80 mm^3, the mice were randomly divided into control group and therapeutic intervention group, with 5 mice in each group. Therapeutic Intervention Group: M8-B hydrochloride was dissolved in DMSO to form an injectable medication, intraperitoneally injected, at a dose of 2 mg/kg (wherein 2 mg was the mass of M8-B hydrochloride), 1 time/day. Control Group: The blank solvent DMSO was intraperitoneally injected, at a dose of 2 mg/kg, 1 time/day. Tumor size was measured by volume=½×length×width^2, and the mice were sacrificed at week 10 to compare survival rate and tumor volume. The experimental results of this example are as follows: Tumor size was measured by volume=½×length×width^2, and mice were sacrificed at week 10 to compare survival rate and tumor volume. The experimental results of this example are as follows: In Table 1, DMSO represents the relative volume of Scid-HepG2-subcutaneous tumor in the control group of blank solvent, M8-B represents the relative volume of Scid-HepG2-subcutaneous tumor in the therapeutic intervention group, and P value represents the difference between the relative volumes of Scid-HepG2-subcutaneous tumors in the control group and therapeutic intervention group. The tumor size on the first day of administration is 100%.

[2] = tested on: Scid-Huh7-subcutaneous tumor; experiment: Scid-Huh7 subcutaneous tumor model in NOD/SCID nude mice; format: in vivo; details: for Relative volume of Scid-Huh7-subcutaneous tumor: 2 mg/kg i.p. 1 time/day
Description: as §1, with “Huh7,” for “HepG2,”, “6” for “10 to compare survival rate and tumor volume. The experimental results of this example are as follows: Tumor size was measured by volume=½×length×width^2, and mice were sacrificed at week 10”, “2,” for “1,”, “Scid-Huh7-subcutaneous” for “Scid-HepG2-subcutaneous”

[3] = week 0, tumor size on first day of administration = 100%
[4] = week 1, first day of administration = 100%
[5] = week 2, first day of administration = 100%
[6] = week 3, first day of administration = 100%
[7] = week 4, first day of administration = 100%
[8] = week 5, first day of administration = 100%
[9] = week 6, first day of administration = 100%

## COc1cc(CN(CCN)C(=O)c2cccs2)ccc1OCc1ccccc1.Cl [M8B]
[1]; versus DMSO control, results of table 1
  changes of tumor volume in mice (HepG2 tumors): significantly slower
[1]; [3]
  Relative volume of Scid-HepG2-subcutaneous tumor: 100.00%
[1]; [4]
  Relative volume of Scid-HepG2-subcutaneous tumor: 151.94%
[1]; [5]
  Relative volume of Scid-HepG2-subcutaneous tumor: 212.44%
[1]; [6]
  Relative volume of Scid-HepG2-subcutaneous tumor: 273.9%
[1]; [7]
  Relative volume of Scid-HepG2-subcutaneous tumor: 349.0%
[1]; [8]
  Relative volume of Scid-HepG2-subcutaneous tumor: 416.66%
[1]; [9]
  Relative volume of Scid-HepG2-subcutaneous tumor: 479.2%
[1]; week 7, first day of administration = 100%
  Relative volume of Scid-HepG2-subcutaneous tumor: 590.68%
[1]; week 8, first day of administration = 100%
  Relative volume of Scid-HepG2-subcutaneous tumor: 1108.50%
[1]; week 9, first day of administration = 100%
  Relative volume of Scid-HepG2-subcutaneous tumor: 700.92%
[1]; week 10, first day of administration = 100%
  Relative volume of Scid-HepG2-subcutaneous tumor: 734.87%
[2]; versus DMSO control, results of table 2
  changes of tumor volume in mice (HuH7 tumors): significantly slower
[2]; [3]
  Relative volume of Scid-Huh7-subcutaneous tumor: 100.00%
[2]; [4]
  Relative volume of Scid-Huh7-subcutaneous tumor: 143.85%
[2]; [5]
  Relative volume of Scid-Huh7-subcutaneous tumor: 205.0%
[2]; [6]
  Relative volume of Scid-Huh7-subcutaneous tumor: 381.41%
[2]; [7]
  Relative volume of Scid-Huh7-subcutaneous tumor: 484.0%
[2]; [8]
  Relative volume of Scid-Huh7-subcutaneous tumor: 789.89%
[2]; [9]
  Relative volume of Scid-Huh7-subcutaneous tumor: 928.01%
